molecular target: T1, FLT3 (Homo sapiens, UniProt P36888); assay: Inhibition of FLT3, 33P-ATP kinase assay with filter-binding detection; format: biochemical; details: 33P-ATP 10 uM, 2 hours at room temperature, filter-binding method
T1 sequence (P36888 27-993): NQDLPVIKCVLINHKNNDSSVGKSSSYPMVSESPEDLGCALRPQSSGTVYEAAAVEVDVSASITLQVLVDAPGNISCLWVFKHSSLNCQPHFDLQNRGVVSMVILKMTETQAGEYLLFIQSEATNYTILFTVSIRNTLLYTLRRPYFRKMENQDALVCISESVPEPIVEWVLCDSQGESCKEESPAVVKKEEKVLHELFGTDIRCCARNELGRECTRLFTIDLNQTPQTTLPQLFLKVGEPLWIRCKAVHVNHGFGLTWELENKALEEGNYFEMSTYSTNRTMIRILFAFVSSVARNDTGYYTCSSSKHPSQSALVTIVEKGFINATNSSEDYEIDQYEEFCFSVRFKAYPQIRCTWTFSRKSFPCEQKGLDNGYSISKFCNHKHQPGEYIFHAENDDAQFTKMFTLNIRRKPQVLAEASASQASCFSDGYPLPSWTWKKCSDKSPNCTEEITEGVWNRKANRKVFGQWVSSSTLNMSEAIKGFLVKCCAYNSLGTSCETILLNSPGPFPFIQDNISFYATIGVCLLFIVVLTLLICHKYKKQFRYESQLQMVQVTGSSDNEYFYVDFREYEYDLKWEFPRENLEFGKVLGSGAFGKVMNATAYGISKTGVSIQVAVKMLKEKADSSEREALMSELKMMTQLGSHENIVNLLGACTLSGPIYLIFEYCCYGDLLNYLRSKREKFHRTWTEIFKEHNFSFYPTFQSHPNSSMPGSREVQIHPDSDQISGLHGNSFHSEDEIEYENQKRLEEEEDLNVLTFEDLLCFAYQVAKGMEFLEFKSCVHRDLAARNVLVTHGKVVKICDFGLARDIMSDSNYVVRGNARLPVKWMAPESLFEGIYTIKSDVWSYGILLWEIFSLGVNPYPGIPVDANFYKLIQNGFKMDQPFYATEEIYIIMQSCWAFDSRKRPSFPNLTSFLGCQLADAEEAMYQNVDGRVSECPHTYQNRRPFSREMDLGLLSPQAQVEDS
Experimental: Prepare indicated substrate in freshly prepared Base Reaction Buffer (20 mM Hepes (pH 7.5), 10 mM MgCl2, 1 mM EGTA, 0.02% Brij35, 0.02 mg/ml BSA, 0.1 mM Na3VO4, 2 mM DTT, 1% DMSO). Deliver any required cofactors to the substrate solution above. Deliver indicated kinase into the substrate solution and gently mix. The testing compounds in DMSO was added into the kinase reaction mixture by Acoustic technology (Echo550; nanoliter range) and incubated for 20 minutes at room temperature. Deliver 33P-ATP (specific activity […]) into the reaction mixture to initiate the reaction. Incubate kinase reaction for 2 hours at room temperature. Reactions are spotted onto P81 ion exchange paper. Detect kinase activity by filter-binding method.
Inhibition of FLT3 with 4-Quinolone Derivatives

Q: How did the IC50 turn out when `NCCCNc1nc2ccccc2c2c(=O)c3cc(F)cc(F)c3sc12` [compound 7252, 6-(3-aminopropylamino)-8,10-difluoro-12H-thiochromeno[2,3-c]quinolin-12-one] was run?
A: The IC50 was 201 to 500 nM.

Q: With `O=c1c2cc(F)ccc2sc2c(NCc3ccccc3)nc3ccc(F)cc3c12` [compound 7424, 6-(benzylamino)-2,10-difluoro-12H-thiochromeno[2,3-c]quinolin-12-one] as the compound, how does the IC50 read?
A: Its IC50 is over 1000 nM.

Q: For `O=c1c2cc(F)ccc2sc2c(Nc3ccccn3)nc3ccccc3c12` [compound 7760, 10-fluoro-6-(pyridin-2-ylamino)-12H-thiochromeno[2,3-c]quinolin-12-one], which IC50 is on record?
A: The IC50 was over 1000 nM.

Q: How did the IC50 turn out when `CCNc1nc2ccccc2c2c(=O)c3cc(C)ccc3sc12` [compound 7232, 6-(ethylamino)-10-methyl-12H-thiochromeno[2,3-c]quinolin-12-one] was run?
A: Its IC50 is over 1000 nM.

Q: With `Nc1nc2ccccc2c2c(=O)c3ccc(Cl)cc3sc12` [compound 7723, 6-Amino-9-chloro-12H-thiochromeno[2,3-c]quinolin-12-one] as the compound, how does the IC50 read?
A: Its IC50 is over 1000 nM.

Q: With `NCCNc1nc2ccccc2c2c(=O)c3cc(F)cc(Cl)c3sc12` [compound 7248, 6-(2-aminoethylamino)-8-chloro-10-fluoro-12H-thiochromeno[2,3-c]quinolin-12-one] as the compound, how does the IC50 read?
A: Its IC50 is 51 to 200 nM.

Q: With `NCCCNc1nc2ccccc2c2c(=O)c3cccc(F)c3sc12` [compound 7211, 6-(3-aminopropylamino)-8-fluoro-12H-thiochromeno[2,3-c]quinolin-12-one] as the compound, how does the IC50 read?
A: The IC50 was under 51 nM.

Q: With `O=c1c2cccc(F)c2sc2c(NCCCNCCO)nc3ccccc3c12` [compound 7224, 8-fluoro-6-(3-(2-hydroxyethylamino)propylamino)-12H-thiochromeno[2,3-c]quinolin-12-one] as the compound, how does the IC50 read?
A: The IC50 was 201 to 500 nM.

Q: How did the IC50 turn out when `Cc1ccc2sc3c(NCCCN)nc4ccccc4c3c(=O)c2c1` [compound 7202, 6-(3-aminopropylamino)-10-methyl-12H-thiochromeno[2,3-c]quinolin-12-one] was run?
A: The IC50 was 51 to 200 nM.

Q: For `COc1ccc2sc3c(NCCCN(C)C)nc4ccccc4c3c(=O)c2c1` [compound 7735, 6-(3-(dimethylamino)propylamino)-10-methoxy-12H-thiochromeno[2,3-c]quinolin-12-one], which IC50 is on record?
A: Its IC50 is over 1000 nM.

Q: Which IC50 does the source give for `CNCCCNc1nc2ccccc2c2c(=O)c3cc(OC)ccc3sc12` [compound 7734, 10-methoxy-6-(3-(methylamino)propylamino)-12H-thiochromeno[2,3-c]quinolin-12-one] here?
A: Its IC50 is 501 to 1000 nM.

Q: With `NCCCNc1nc2ccccc2c2c(=O)c3cc(OC(F)(F)F)ccc3sc12` [compound 7203, 6-(3-aminopropylamino)-10-(trifluoromethoxy)-12H-thiochromeno[2,3-c]quinolin-12-one] as the compound, how does the IC50 read?
A: Its IC50 is over 1000 nM.

Q: How did the IC50 turn out when `O=c1c2cc(Cl)ccc2sc2c(NCCCO)nc3ccccc3c12` [compound 7719, 10-chloro-6-(3-hydroxypropylamino)-12H-thiochromeno[2,3-c]quinolin-12-one] was run?
A: The IC50 was over 1000 nM.

Q: Which IC50 does the source give for `Nc1nc2ccccc2c2c1S(=O)(=O)c1ccc(Cl)cc1C2=O` [compound 7001, 6-Amino-10-chloro-12H-thiochromeno[2,3-c]quinolin-12-one 7,7-dioxide] here?
A: The IC50 was over 1000 nM.

Q: Which IC50 does the source give for `O=c1c2cc(F)ccc2sc2c(NCCN3CCOCC3)nc3ccccc3c12` [compound 7756, 10-fluoro-6-((2-morpholinoethyl)amino)-12H-thiochromeno[2,3-c]quinolin-12-one] here?
A: Its IC50 is over 1000 nM.

Q: For `COc1cccc2c(=O)c3c(sc12)c(NCCCN)nc1ccccc13` [compound 7212, 6-(3-aminopropylamino)-8-methoxy-12H-thiochromeno[2,3-c]quinolin-12-one], which IC50 is on record?
A: Its IC50 is under 51 nM.

Q: With `O=c1c2cc(F)ccc2sc2c(-n3ccnc3)nc3ccccc3c12` [compound 7766, 10-fluoro-6-(1H-imidazol-1-yl)-12H-thiochromeno[2,3-c]quinolin-12-one] as the compound, how does the IC50 read?
A: Its IC50 is over 1000 nM.

Q: `O=c1c2cc(F)ccc2sc2c(Nc3cccnc3)nc3ccccc3c12` [compound 7761, 10-fluoro-6-(pyridin-3-ylamino)-12H-thiochromeno[2,3-c]quinolin-12-one] was tested. Which IC50 did it give?
A: The IC50 was over 1000 nM.

Q: How did the IC50 turn out when `O=c1c2cc(F)ccc2sc2c(NCCCNCCO)nc3ccc(F)cc3c12` [compound 7408, 2,10-difluoro-6-(3-(2-hydroxyethylamino)propylamino)-12H-thiochromeno[2,3-c]quinolin-12-one] was run?
A: Its IC50 is over 1000 nM.

Q: `O=c1c2cc(F)ccc2sc2c(N3CCNCC3)nc3ccccc3c12` [compound 7739, 10-fluoro-6-(piperazin-1-yl)-12H-thiochromeno[2,3-c]quinolin-12-one] was tested. Which IC50 did it give?
A: The IC50 was 51 to 200 nM.

Q: `CCCNc1nc2ccccc2c2c(=O)c3cc(F)ccc3sc12` [compound 7706, 10-fluoro-6-(propylamino)-12H-thiochromeno[2,3-c]quinolin-12-one] was tested. Which IC50 did it give?
A: The IC50 was over 1000 nM.

Q: Which IC50 does the source give for `CN(C)CCNc1nc2ccccc2c2c(=O)c3cc(F)ccc3sc12` [compound 7744, 6-(2-(dimethylamino)ethylamino)-10-fluoro-12H-thiochromeno[2,3-c]quinolin-12-one] here?
A: Its IC50 is 201 to 500 nM.

Q: With `COc1ccc2sc3c(NCCCNCCO)nc4ccccc4c3c(=O)c2c1` [compound 7712, 6-(3-(2-hydroxyethylamino)propylamino)-10-methoxy-12H-thiochromeno[2,3-c]quinolin-12-one] as the compound, how does the IC50 read?
A: Its IC50 is 501 to 1000 nM.

Q: With `O=c1c2cc(C(F)(F)F)ccc2sc2c(NCCCNCCO)nc3ccccc3c12` [compound 7214, 6-(3-(2-hydroxyethylamino)propylamino)-10-trifluoromethyl-12H-thiochromeno[2,3-c]quinolin-12-one] as the compound, how does the IC50 read?
A: Its IC50 is over 1000 nM.

Q: For `CCCNc1nc2ccccc2c2c(=O)c3cc(Cl)ccc3sc12` [compound 7703, 10-chloro-6-(propylamino)-12H-thiochromeno[2,3-c]quinolin-12-one], which IC50 is on record?
A: Its IC50 is over 1000 nM.

Q: How did the IC50 turn out when `CNCCCNc1nc2ccccc2c2c(=O)c3cc(F)ccc3sc12` [compound 7731, 10-fluoro-6-(3-(methylamino)propylamino)-12H-thiochromeno[2,3-c]quinolin-12-one] was run?
A: The IC50 was 201 to 500 nM.

Q: `O=c1c2cc(F)ccc2sc2c(NCCCO)nc3ccccc3c12` [compound 7729, 10-fluoro-6-(3-hydroxypropylamino)-12H-thiochromeno[2,3-c]quinolin-12-one] was tested. Which IC50 did it give?
A: Its IC50 is over 1000 nM.

Q: `CNCCCNc1nc2ccccc2c2c(=O)c3cc(Cl)ccc3sc12` [compound 7721, 10-chloro-6-(3-(methylamino)propylamino)-12H-thiochromeno[2,3-c]quinolin-12-one] was tested. Which IC50 did it give?
A: Its IC50 is 501 to 1000 nM.

Q: For `COc1cccc2c(=O)c3c(sc12)c(NCCN)nc1ccccc13` [compound 7244, 6-(2-aminoethylamino)-8-methoxy-12H-thiochromeno[2,3-c]quinolin-12-one], which IC50 is on record?
A: Its IC50 is under 51 nM.

Q: With `CCCNc1nc2ccccc2c2c(=O)c3ccc(Cl)cc3sc12` [compound 7725, 9-chloro-6-(propylamino)-12H-thiochromeno[2,3-c]quinolin-12-one] as the compound, how does the IC50 read?
A: Its IC50 is over 1000 nM.

Source: patent publication US11332476B2, “Fms-like tyrosine kinase inhibitors” (3SM BIOTRON INC., priority 2018, dated 2022)
